Assay results published in patent publication US20240358665A1, “SMALL MOLECULE MELPHALAN HYDROGEL AND METHOD FOR PREPARING THE SAME” (Changzhi Medical College, priority 2024, published 2024).

Assay: Change of transmittance over time at 790 nm (ultraviolet spectrophotometer)
Type: physicochemical
Conditions: melphalan dissolved in physiological saline (FIG. 5: 0.9% NaCl, content 2%)
Protocol: The small molecule melphalan hydrogels prepared in Embodiments 1 to 3 of the present disclosure are tested for transmittance, and the specific testing steps are as follows: • Prepare small molecule melphalan solutions according to the methods in Embodiments 1 to 3 above, take 3 mL of the solution and place it in a glass dish, and place the glass dish in an ultraviolet spectrophotometer, and measure the change of transmittance over time, at 790 nm. The phenomenon that the transmittance gradually decreases from 100% (solution state) to less than 10% proves that the small molecule melphalan solution is transformed into a hydrogel.

For `N[C@@H](Cc1ccc(N(CCCl)CCCl)cc1)C(=O)O` [melphalan, Melphalan], the “transmittance after gelation (falls from 100% in solution state)” value was “less than 10%”.
